In patent US11446301B2, “Quinoline analogs as phosphatidylinositol 3-kinase inhibitors” (NANJING ZHENGXIANG PHARMACEUTICALS CO., LTD., priority 2016, dated 2022):
Read-outs that look alike come from different tables or passages of the source. Values belong to the molecule of their own block, whether it stands above or below them.

How the values were obtained:
[1] = PK profiles after iv and PO dosing in rats; type: in vivo; details: oral dose 10 mg/kg, SD rats, vs idelalisib
Procedure: Compound 2 was dosed by both iv and PO in the rats.

human hepatocytes = assay: Hepatocyte stability (parent disappearance in cryopreserved hepatocytes); type: in vitro ADME
Procedure: The hepatocyte assay was used to evaluate the metabolic stability of test articles (TA) following incubation in cryopreserved hepatocytes by monitoring parent drug disappearance via […]. The TA with 1% final DMSO concentration was incubated with 0.5 million hepatocytes/ml at 1 μM substrate in duplicate. The incubation was carried out at 37° C. with 5% CO2 and saturating humidity. Samples were taken at 0, 1, 2, and 3 hours to monitor the disappearance of TA and a half-life (t ½) was determined. Table 2 below summarizes the t½ values (e.g. t ½) collected from this Example.

[2] = cited from earlier work
[3] = IV; data from idelalisib NDA filing; cited from earlier work

Oral exposure corrected with dose (AUCinf/dose) higher than that of idelalisib [1]: 20 fold
Compound: C[C@H](Nc1nc(N)nc(N)c1C#N)c1cc2ccc(F)cc2nc1-c1ccccn1 (stereo in doubt) [Compound 2, (S)-2,4-Diamino-6-[1-(7-fluoro-2-pyridin-2-yl-quinolin-3-yl)-ethyla-mino]-pyrimidine-5-carbonitrile]

improved stability in human hepatocytes (longer half-life) than compound E (human hepatocytes; fold vs compound E): 1.3 ×
Compound: C[C@H](Nc1nc(N)nc(N)c1C#N)c1cc2ccc(F)cc2nc1-c1ccccc1S(C)(=O)=O (stereo in doubt) [Compound 4, (S)-2,4-Diamino-6-{1-[7-fluoro-2-(2-methanesulfonyl-phenyl)-quinoli-n-3-yl]-ethylamino}-pyrimidine-5-carbonitrile]

improved stability in human hepatocytes (longer half-life) than compound D (human hepatocytes; fold vs compound D): 2.7 ×
Compound: C[C@H](Nc1nc(N)nc(N)c1C#N)c1cc2ccc(F)cc2nc1-c1ccccc1 [Compound 1, (S)-2,4-diamino-6-[1-(7-fluoro-2-phenyl-quinolin-3-yl)-ethylamino]-pyrimidine-5-carbonitrile]

Compound: CC[C@H](Nc1ncnc2[nH]cnc12)c1nc2cccc(F)c2c(=O)n1-c1ccccc1 [Idelalisib, idelalisib]
Fatal and/or serious hepatotoxicity, patients ([2]; idelalisib in combination trials): 11%
Fatal and/or serious hepatotoxicity, patients ([2]; idelalisib monotherapy): 18%
Tmax [3]: 3.6 min
